Measured values: paper PMC10794144, “A novel antibiotic class targeting the lipopolysaccharide transporter” (Nature, 2024)
In brackets after ≈: the same amount, converted by molar mass. Read-outs that look alike come from different tables or passages of the source.

Test system: A. baumannii
Assay: microbe, parasite or virus in culture
Settings: Acinetobacter baumannii, 100%
Method in brief: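 Broth microdilution per CLSI M07/M100, with inocula diluted from a 0.5 McFarland suspension in CAMHB, or LB for A. baylyi. MIC was read as the lowest concentration inhibiting growth by eye or beyond which OD600 stopped decreasing.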

`C[C@@H](O)[C@H]1C(=O)N2C(C(=O)O)=C(S[C@@H]3CN[C@H](C(=O)N(C)C)C3)[C@H](C)[C@H]12` [meropenem, reference compound] gave an MIC (read-out: MIC 100%, ROB08705, Study LGC295147) of 32 µg/mL (≈ 83.4 µM), an MIC (read-out: MIC 100%, ROB08705, Study LGC296813) of 32 µg/mL (≈ 83.4 µM) and an MIC (read-out: MIC 100%, ROB08705, Study LGC299544) of 32 µg/mL (≈ 83.4 µM). The MIC (read-out: MIC 100%, ROB08705, Study LGC301026) was 64 µg/mL (≈ 167 µM), the MIC (read-out: MIC 100%, ROB08705, Study LGC308175) was 32 µg/mL (≈ 83.4 µM) and the MIC (read-out: MIC 100%, ROB08705, Study ROC003) was 32 µg/mL (≈ 83.4 µM). The MIC (read-out: MIC 100%, ROB08705, Study ROC004) was 64 µg/mL (≈ 167 µM), the MIC (read-out: MIC 100%, ROB08705, Study ROC005) was 64 µg/mL (≈ 167 µM) and the MIC (read-out: MIC 100%, ROB08705, Study ROC006) was 64 µg/mL (≈ 167 µM). The MIC (read-out: MIC 100%, ROB08705, Study ROC007) was 32 µg/mL (≈ 83.4 µM), the MIC (read-out: MIC 100%, ROB08705, Study ROC008) was greater than 64 µg/mL and the MIC (read-out: MIC 100%, ROB08705, Study ROC009) was 32 µg/mL (≈ 83.4 µM). The MIC (read-out: MIC 100%, ROB08705, Study ROC010) was 64 µg/mL (≈ 167 µM), the MIC (read-out: MIC 100%, ROB08705, Study ROC012) was 32 µg/mL (≈ 83.4 µM) and the MIC (read-out: MIC 100%, ROB08705, Study ROC013) was 32 µg/mL (≈ 83.4 µM). The MIC (read-out: MIC 100%, ROB08706, Study LGC277937) was 64 µg/mL (≈ 167 µM), the MIC (read-out: MIC 100%, ROB08706, Study LGC279800) was greater than 64 µg/mL and the MIC (read-out: MIC 100%, ROB08706, Study LGC281440) was 32 µg/mL (≈ 83.4 µM). The MIC (read-out: MIC 100%, ROB08706, Study LGC282160) was 64 µg/mL (≈ 167 µM), the MIC (read-out: MIC 100%, ROB08706, Study LGC282623) was 64 µg/mL (≈ 167 µM) and the MIC (read-out: MIC 100%, ROB08706, Study LGC283932) was 64 µg/mL (≈ 167 µM). For the same molecule, the MIC (read-out: MIC 100%, ROB08706, Study LGC284200) was 32 µg/mL (≈ 83.4 µM), the MIC (read-out: MIC 100%, ROB08706, Study LGC284879) was 64 µg/mL (≈ 167 µM) and the MIC (read-out: MIC 100%, ROB08706, Study LGC285582) was 64 µg/mL (≈ 167 µM). For the same molecule, the MIC (read-out: MIC 100%, ROB08706, Study LGC286210) was 64 µg/mL (≈ 167 µM), the MIC (read-out: MIC 100%, ROB08706, Study LGC293598) was 64 µg/mL (≈ 167 µM) and the MIC (read-out: MIC 100%, ROB08706, Study LGC294355) was 64 µg/mL (≈ 167 µM). The MIC (read-out: MIC 100%, ROB08706, Study LGC295147) was 64 µg/mL (≈ 167 µM), the MIC (read-out: MIC 100%, ROB08706, Study LGC296813) was 64 µg/mL (≈ 167 µM) and the MIC (read-out: MIC 100%, ROB08706, Study LGC299544) was 64 µg/mL (≈ 167 µM). It also gave an MIC (read-out: MIC 100%, ROB08706, Study LGC301026) of 64 µg/mL (≈ 167 µM), an MIC (read-out: MIC 100%, ROB08706, Study LGC308175) of 64 µg/mL (≈ 167 µM) and an MIC (read-out: MIC 100%, ROB08706, Study ROC004) of 64 µg/mL (≈ 167 µM). The MIC (read-out: MIC 100%, ROB08706, Study ROC005) was 64 µg/mL (≈ 167 µM), the MIC (read-out: MIC 100%, ROB08706, Study ROC006) was greater than 64 µg/mL and the MIC (read-out: MIC 100%, ROB08706, Study ROC007) was 64 µg/mL (≈ 167 µM). For the same molecule, the MIC (read-out: MIC 100%, ROB08706, Study ROC008) was 64 µg/mL (≈ 167 µM), the MIC (read-out: MIC 100%, ROB08706, Study ROC009) was 64 µg/mL (≈ 167 µM) and the MIC (read-out: MIC 100%, ROB08706, Study ROC010) was 32 µg/mL (≈ 83.4 µM). For the same molecule, the MIC (read-out: MIC 100%, ROB08706, Study ROC012) was 64 µg/mL (≈ 167 µM), the MIC (read-out: MIC 100%, ROB08706, Study ROC013) was 64 µg/mL (≈ 167 µM) and the MIC (read-out: MIC 100%, ROB08707, Study LGC277937) was 32 µg/mL (≈ 83.4 µM). The MIC (read-out: MIC 100%, ROB08707, Study LGC279800) was 32 µg/mL (≈ 83.4 µM), the MIC (read-out: MIC 100%, ROB08707, Study LGC281440) was 32 µg/mL (≈ 83.4 µM) and the MIC (read-out: MIC 100%, ROB08707, Study LGC282160) was 32 µg/mL (≈ 83.4 µM). For the same molecule, the MIC (read-out: MIC 100%, ROB08707, Study LGC282623) was 64 µg/mL (≈ 167 µM), the MIC (read-out: MIC 100%, ROB08707, Study LGC283932) was 64 µg/mL (≈ 167 µM) and the MIC (read-out: MIC 100%, ROB08707, Study LGC284200) was 32 µg/mL (≈ 83.4 µM). For the same molecule, the MIC (read-out: MIC 100%, ROB08707, Study LGC284879) was 64 µg/mL (≈ 167 µM), the MIC (read-out: MIC 100%, ROB08707, Study LGC285582) was 32 µg/mL (≈ 83.4 µM) and the MIC (read-out: MIC 100%, ROB08707, Study LGC286210) was 32 µg/mL (≈ 83.4 µM). For the same molecule, the MIC (read-out: MIC 100%, ROB08707, Study LGC293598) was 32 µg/mL (≈ 83.4 µM), the MIC (read-out: MIC 100%, ROB08707, Study LGC294355) was 32 µg/mL (≈ 83.4 µM) and the MIC (read-out: MIC 100%, ROB08707, Study LGC295147) was 64 µg/mL (≈ 167 µM). For the same molecule, the MIC (read-out: MIC 100%, ROB08707, Study LGC296813) was 32 µg/mL (≈ 83.4 µM), the MIC (read-out: MIC 100%, ROB08707, Study LGC299544) was 64 µg/mL (≈ 167 µM) and the MIC (read-out: MIC 100%, ROB08707, Study LGC301026) was 32 µg/mL (≈ 83.4 µM). The MIC (read-out: MIC 100%, ROB08707, Study LGC308175) was 32 µg/mL (≈ 83.4 µM), the MIC (read-out: MIC 100%, ROB08707, Study ROC004) was 32 µg/mL (≈ 83.4 µM) and the MIC (read-out: MIC 100%, ROB08707, Study ROC005) was 32 µg/mL (≈ 83.4 µM). It also gave an MIC (read-out: MIC 100%, ROB08707, Study ROC006) of 64 µg/mL (≈ 167 µM), an MIC (read-out: MIC 100%, ROB08707, Study ROC007) of 64 µg/mL (≈ 167 µM) and an MIC (read-out: MIC 100%, ROB08707, Study ROC008) of 32 µg/mL (≈ 83.4 µM). The MIC (read-out: MIC 100%, ROB08707, Study ROC009) was 32 µg/mL (≈ 83.4 µM), the MIC (read-out: MIC 100%, ROB08707, Study ROC010) was 32 µg/mL (≈ 83.4 µM) and the MIC (read-out: MIC 100%, ROB08707, Study ROC012) was 32 µg/mL (≈ 83.4 µM). For the same molecule, the MIC (read-out: MIC 100%, ROB08707, Study ROC013) was 32 µg/mL (≈ 83.4 µM), the MIC (read-out: MIC 100%, ROB08708, Study LGC277937) was greater than 64 µg/mL and the MIC (read-out: MIC 100%, ROB08708, Study LGC279800) was 32 µg/mL (≈ 83.4 µM). The MIC (read-out: MIC 100%, ROB08708, Study LGC281440) was 16 µg/mL (≈ 41.7 µM), the MIC (read-out: MIC 100%, ROB08708, Study LGC282160) was 16 µg/mL (≈ 41.7 µM) and the MIC (read-out: MIC 100%, ROB08708, Study LGC282623) was 32 µg/mL (≈ 83.4 µM). For the same molecule, the MIC (read-out: MIC 100%, ROB08708, Study LGC283932) was 32 µg/mL (≈ 83.4 µM), the MIC (read-out: MIC 100%, ROB08708, Study LGC284200) was 32 µg/mL (≈ 83.4 µM) and the MIC (read-out: MIC 100%, ROB08708, Study LGC284879) was 32 µg/mL (≈ 83.4 µM). The MIC (read-out: MIC 100%, ROB08708, Study LGC285582) was 32 µg/mL (≈ 83.4 µM), the MIC (read-out: MIC 100%, ROB08708, Study LGC286210) was 16 µg/mL (≈ 41.7 µM) and the MIC (read-out: MIC 100%, ROB08708, Study LGC293598) was 16 µg/mL (≈ 41.7 µM). It also gave an MIC (read-out: MIC 100%, ROB08708, Study LGC294355) of 16 µg/mL (≈ 41.7 µM), an MIC (read-out: MIC 100%, ROB08708, Study LGC295147) of 32 µg/mL (≈ 83.4 µM) and an MIC (read-out: MIC 100%, ROB08708, Study LGC296813) of 32 µg/mL (≈ 83.4 µM). The MIC (read-out: MIC 100%, ROB08708, Study LGC299544) was 32 µg/mL (≈ 83.4 µM), the MIC (read-out: MIC 100%, ROB08708, Study LGC301026) was 32 µg/mL (≈ 83.4 µM) and the MIC (read-out: MIC 100%, ROB08708, Study LGC308175) was 64 µg/mL (≈ 167 µM). The MIC (read-out: MIC 100%, ROB08708, Study ROC004) was 32 µg/mL (≈ 83.4 µM) and the MIC (read-out: MIC 100%, ROB08708, Study ROC005) was 16 µg/mL (≈ 41.7 µM).
